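Cells were grown in 96-well plates and exposed to each compound for 48 hours at five concentrations; endpoints were interpolated linearly between bracketing concentrations, or set to the highest concentration if not reached. TGI denotes the concentration required for complete inhibition of growth.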
How the values were obtained:
Test in all cases: NCI tumour cell line growth inhibition, 48 h
SN12C renal = system: SN12C renal
MCF7 breast = system: MCF7 breast
A549 NSCLC = system: A549 NSCLC
SNB-19 CNS = system: SNB-19 CNS
MDA-MB-435 = system: MDA-MB-435
LOX IMVI melanoma = system: LOX IMVI melanoma
NCI-H522 lung = system: NCI-H522 lung
M14 melanoma = system: M14 melanoma
SK-MEL-28 melanoma = system: SK-MEL-28 melanoma
NCI/ADR-RES ovarian = system: NCI/ADR-RES ovarian
BT-549 breast = system: BT-549 breast
ACHN renal = system: ACHN renal
SNB-75 CNS = system: SNB-75 CNS
HT29 colon = system: HT29 colon
COLO 205 colon = system: COLO 205 colon
CAKI-1 renal = system: CAKI-1 renal
RXF 393 renal = system: RXF 393 renal
U251 CNS = system: U251 CNS
HOP-92 NSCLC = system: HOP-92 NSCLC
CCRF-CEM leukemia = system: CCRF-CEM leukemia

Q: How did the TGI (SN12C renal) turn out when COc1ccc2[nH]c3c(C)c4ccnc(NCCCN(C)CCCNc5ccc6ncn7c8ccccc8c(=O)c5c67)c4c(C)c3c2c1 was run?
A: 3.38 µM

Q: And the TGI (MCF7 breast)?
A: 2.61 µM

Q: What about the TGI (A549 NSCLC) of the same compound?
A: 1.48 µM

Q: What about the TGI (SNB-19 CNS) of the same compound?
A: 3.42 µM

Q: And the TGI (MDA-MB-435)?
A: 4.45 µM

Q: And the TGI (LOX IMVI melanoma)?
A: 0.606 µM

Q: What about the TGI (NCI-H522 lung) of the same compound?
A: 1.24 µM

Q: What about the TGI (M14 melanoma) of the same compound?
A: 2.48 µM

Q: What about the TGI (SK-MEL-28 melanoma) of the same compound?
A: 21.9 µM

Q: What about the TGI (NCI/ADR-RES ovarian) of the same compound?
A: 4.55 µM

Q: What about the TGI (BT-549 breast) of the same compound?
A: 3.99 µM

Q: And the TGI (ACHN renal)?
A: 0.918 µM

Q: And the TGI (SNB-75 CNS)?
A: 7.38 µM

Q: And the TGI (HT29 colon)?
A: 1.03 µM

Q: What about the TGI (COLO 205 colon) of the same compound?
A: 4.36 µM

Q: What about the TGI (CAKI-1 renal) of the same compound?
A: 0.561 µM

Q: And the TGI (RXF 393 renal)?
A: 0.623 µM

Q: And the TGI (U251 CNS)?
A: 1.12 µM

Q: And the TGI (HOP-92 NSCLC)?
A: 19.2 µM

Q: What about the TGI (CCRF-CEM leukemia) of the same compound?
A: 5.62 µM

Q: Which TGI (SN12C renal) does the source give for O=C1C(Cl)N(c2cccc([N+](=O)[O-])c2)C1c1c[nH]c2ccccc12 (stereo not drawn) here?
A: > 100 µM

Q: What about the TGI (A549 NSCLC) of the same compound?
A: 56.3 µM

Q: What about the TGI (SNB-19 CNS) of the same compound?
A: 57.8 µM

Q: What about the TGI (NCI-H522 lung) of the same compound?
A: 48.7 µM

Q: What about the TGI (M14 melanoma) of the same compound?
A: 33 µM

Q: And the TGI (SK-MEL-28 melanoma)?
A: 73.5 µM

Q: What about the TGI (SNB-75 CNS) of the same compound?
A: 47.2 µM

Q: And the TGI (HT29 colon)?
A: 43.7 µM

Q: And the TGI (COLO 205 colon)?
A: 41.8 µM

Q: What about the TGI (RXF 393 renal) of the same compound?
A: 27 µM

Q: What about the TGI (U251 CNS) of the same compound?
A: 56.6 µM

Q: What about the TGI (HOP-92 NSCLC) of the same compound?
A: 47.9 µM

Q: And the TGI (CCRF-CEM leukemia)?
A: 65.7 µM

Q: With NC12CCC(CC1=O)C2 (stereo not drawn) as the compound, how does the TGI (SN12C renal) read?
A: > 100 µM

Q: And the TGI (MCF7 breast)?
A: > 100 µM

Q: What about the TGI (A549 NSCLC) of the same compound?
A: > 100 µM

Q: What about the TGI (MDA-MB-435) of the same compound?
A: > 100 µM

Q: And the TGI (LOX IMVI melanoma)?
A: > 100 µM

Q: And the TGI (M14 melanoma)?
A: > 100 µM

Q: And the TGI (SK-MEL-28 melanoma)?
A: > 100 µM

Q: And the TGI (NCI/ADR-RES ovarian)?
A: > 100 µM

Q: What about the TGI (ACHN renal) of the same compound?
A: > 100 µM

Q: What about the TGI (SNB-75 CNS) of the same compound?
A: > 100 µM

Q: And the TGI (HT29 colon)?
A: > 100 µM

Q: What about the TGI (COLO 205 colon) of the same compound?
A: > 100 µM

Q: What about the TGI (U251 CNS) of the same compound?
A: > 100 µM

Q: What about the TGI (HOP-92 NSCLC) of the same compound?
A: > 100 µM

Q: And the TGI (CCRF-CEM leukemia)?
A: > 100 µM

Q: What does the source list for COc1cc2c(cc1OC)C(=O)/C(=C/c1cc(OC)c(OC)c(OC)c1)C2?
A: TGI (SN12C renal): > 100 µM; TGI (MCF7 breast): > 100 µM; TGI (SNB-19 CNS): > 100 µM; TGI (MDA-MB-435): > 100 µM; TGI (NCI-H522 lung): 51 µM; TGI (M14 melanoma): > 100 µM; TGI (SK-MEL-28 melanoma): > 100 µM; TGI (NCI/ADR-RES ovarian): > 100 µM; TGI (BT-549 breast): > 100 µM; TGI (SNB-75 CNS): > 100 µM; TGI (HT29 colon): > 100 µM; TGI (COLO 205 colon): > 100 µM; TGI (CAKI-1 renal): > 100 µM; TGI (RXF 393 renal): > 100 µM; TGI (U251 CNS): > 100 µM; TGI (HOP-92 NSCLC): > 100 µM; TGI (CCRF-CEM leukemia): > 100 µM

Q: For COC(=O)C1=C(OC(=O)/C=C/c2ccc(Cl)cc2)C(C(=O)OC)[C@@]2(O)[C@@H](C(=O)OC)[C@H](C)C[C@@H]1[C@@H]2C(=O)OC (stereo partly drawn), which TGI (SN12C renal) is on record?
A: 45.7 µM

Q: And the TGI (A549 NSCLC)?
A: > 100 µM

Q: And the TGI (SNB-19 CNS)?
A: > 100 µM

Q: What about the TGI (MDA-MB-435) of the same compound?
A: > 100 µM

Q: And the TGI (LOX IMVI melanoma)?
A: 37.7 µM

Q: And the TGI (NCI-H522 lung)?
A: 23.1 µM

Q: What about the TGI (M14 melanoma) of the same compound?
A: > 100 µM

Q: And the TGI (SK-MEL-28 melanoma)?
A: 88.7 µM

Q: What about the TGI (NCI/ADR-RES ovarian) of the same compound?
A: 64.6 µM

Q: And the TGI (BT-549 breast)?
A: 53.7 µM

Q: What about the TGI (ACHN renal) of the same compound?
A: 80 µM

Q: What about the TGI (SNB-75 CNS) of the same compound?
A: > 100 µM

Q: What about the TGI (HT29 colon) of the same compound?
A: 65.8 µM

Q: And the TGI (COLO 205 colon)?
A: 40.7 µM

Q: And the TGI (CAKI-1 renal)?
A: 87.3 µM

Q: What about the TGI (RXF 393 renal) of the same compound?
A: > 100 µM

Q: And the TGI (U251 CNS)?
A: > 100 µM

Q: What about the TGI (CCRF-CEM leukemia) of the same compound?
A: 64.8 µM

— PubChem BioAssay (NCI)
